Measurements published in patent publication US20250251402A1, “METHODS OF DETECTING MOLECULAR AGGREGATES USING IMAGE CORRELATION SPECTROSCOPY (ICS)” (The General Hospital Corporation, priority 2022, published 2025).

Assays:
Format in all cases: cell-based
OVCA429 cells [1] = experiment: RAD51 immunofluorescence in OVCA429 cells (Imaris Spots, ICS DA)
From the text: (§1) For the ICS analysis, nuclei were segmented from the DAPI channel using a watershed approach in MATLAB. Briefly, we applied a difference of gaussians for size-based feature extraction of nuclei in the image (upper gaussian σ=100, lower gaussian σ=2-5 dependent on cell size). This feature enhanced image was then binarized to create a primary mask (using the function imbinarize) and connected components under 100 pixels were removed (using the function bwareaopen). We then created a distance transform of the resulting binary image (using the function bwdist). Seed points were determined by finding the regional maximum of a gaussian filtered image, with a gaussian σ of appropriate size for seed point detection (σ×7 or 8 dependent on cell size). […]
(§2) Using the nucleus masks, we performed ICS analysis on the antibody-stained channel, within size limitations for a nucleus (objects >400 and <2400 pixels). Intensity, DA and TNOP were calculated for each cell. […]
(§3) Imaris spots analysis were performed with Imaris 9.8 with background subtraction, using a spot size of 1 μm that was measured from the smallest distinguishable foci from the control image. […] In each dataset, the automatic “quality” threshold was determined from the control image and the same threshold was used for every image in the dataset to be able to compare the outputs across datasets. […]

OVCA429 cells [2] = experiment: γH2AX immunofluorescence in OVCA429 cells (intensity, Imaris Spots, ICS TNoP and DA)
From the text: (§4) For the ICS analysis, nuclei were segmented from the DAPI channel using a watershed approach in MATLAB. Briefly, we applied a difference of gaussians for size-based feature extraction of nuclei in the image (upper gaussian σ=100, lower gaussian σ=2-5 dependent on cell size). This feature enhanced image was then binarized to create a primary mask (using the function imbinarize) and connected components under 100 pixels were removed (using the function bwareaopen). We then created a distance transform of the resulting binary image (using the function bwdist). Seed points were determined by finding the regional maximum of a gaussian filtered image, with a gaussian σ of appropriate size for seed point detection (σ×7 or 8 dependent on cell size). The seed points were applied to the distance transform, and we applied the watershed function to the resulting image to obtain masks for each nucleus (extracted using the function regionprops).
(§5) Using the nucleus masks, we performed ICS analysis on the antibody-stained channel, within size limitations for a nucleus (objects >400 and <2400 pixels). Intensity, DA and TNOP were calculated for each cell. In this analysis, since the ROI is defined by the nucleus mask (segmented from nuclear signal using DAPI staining), TNoP represents the total number of particles per nucleus, with the image area being the number of pixels in each nuclear mask.
(§6) Measurements across experiments were normalized by the control in each dataset. […] Data were plotted in Prism and statistical analysis was performed in Excel.
(§7) Imaris spots analysis were performed with Imaris 9.8 with background subtraction, using a spot size of 1 μm that was measured from the smallest distinguishable foci from the control image. For images with multiple nuclei, ImarisCell was used with the detection type “cell and vesicles”, where the nucleus in the DAPI channel was modelled as the “cell” and antibody-labeled foci were modelled as the “vesicles”. This enabled us to count the number of foci per nucleus for multiple cells. In each dataset, the automatic “quality” threshold was determined from the control image and the same threshold was used for every image in the dataset to be able to compare the outputs across datasets. Similar to the ICS analysis, only cells with an area between 400-2400 voxels were included for analysis.
(§8) All chemicals were purchased from Sigma unless otherwise noted. All drugs were purchased from Selleck Chemicals. Cells were cultured in media supplemented with 10% fetal bovine serum and 1% penicillin/streptomycin. OVCA429 were originally obtained from Dr. Michael Birrer and cultured in DMEM. SKOV3 was obtained from ATCC and cultured in RPMI. For MMS treatment, cells were incubated for 6 hours before fixation with 4% formaldehyde, whereas for treatment with PARP inhibitors, cells were incubated for 24 hours before fixation.
(§9) Cells were plated in 8-well slides (Fisher) to achieve 50% confluence overnight. Cells were then treated and fixed with 4% formaldehyde in PBS at room temperature for 10 minutes. Antibody staining was performed according to the manufacturers protocol (Cell Signaling Technologies or Abcam). Primary antibodies used were γH2AX (CST, #2577), RPA1 (CST, #2267) and RAD51 (Abcam, 63801), with Anti-rabbit IgG Fab2 Alexa Fluor 647 (CST, #4414) as the secondary fluorescent antibody. After antibody labeling, prolong gold with DAPI (CST) was added and samples were stored for up to 1 week prior to imaging. Confocal imaging was performed on an Olympus FV1000 multiphoton/confocal microscope using an Olympus XLUMPlanFL N 20× objective, NA 1.00 with chromatic correction, and 3× digital zoom. DAPI was excited with a 405 nm laser, while Alexa Fluor 647 was excited with a 635 nm laser. A multiband (DM 405/488/561/633 nm) dichroic mirror was used to direct the excitation laser and collect emission. […]

SKOV3 cells [3] = experiment: γH2AX immunofluorescence in SKOV3 cells (intensity, Imaris Spots, ICS TNoP and DA)
From the text: as §4, §5, §6, §7, §8, §9

SKOV3 cells [4] = experiment: RAD51 immunofluorescence in SKOV3 cells (Imaris Spots, ICS DA)
From the text: as §4, §5
Imaris spots analysis were performed with Imaris 9.8 with background subtraction, using a spot size of 1 μm that was measured from the smallest distinguishable foci from the control image. For images with multiple nuclei, ImarisCell was used with the detection type “cell and vesicles”, where the nucleus in the DAPI channel was modelled as the “cell” and antibody-labeled foci were modelled as the “vesicles”. This enabled us to count the number of foci per nucleus for multiple cells. In each dataset, the automatic “quality” threshold was determined from the control image and the same threshold was used for every image in the dataset to be able to compare the outputs across datasets. […]

SKOV3 cells [5] = experiment: RPA1 immunofluorescence in SKOV3 cells (Imaris Spots, ICS DA)
From the text: as §1, §2, §3

OVCA429 cells [6] = experiment: RPA1 immunofluorescence in OVCA429 cells (Imaris Spots, ICS DA)
From the text: as §1, §2, §3

For COS(C)(=O)=O [MMS, methyl methane-sulfonate], the “RAD51 ICS DA, dose dependence” value (OVCA429 cells [1]) was “dose dependent increases in aggregation”, the “RAD51 Imaris Spots analysis, dose dependence” value (OVCA429 cells [1]) was “did not show an overall MMS dose dependency” and the “ICS DA of γH2AX, dose dependence” value (OVCA429 cells [2]; OVCA429) was “results similar to Spots analysis”. For the same compound, the “ICS TNoP of γH2AX, dose dependence” value (OVCA429 cells [2]; OVCA429) was “did not produce any MMS dose dependence”, the “Imaris Spots analysis of γH2AX, dose dependence” value (OVCA429 cells [2]; OVCA429) was “captured the MMS dose dependent DNA damage” and the γH2AX intensity (OVCA429 cells [2]; OVCA429, 1 mM MMS) was “drastically increases”. For the same compound, the “ICS degree of aggregation (DA) of γH2AX, dose dependence” value (SKOV3 cells [3]; SKOV3) was “dose dependence”, the “Normalized γH2AX intensity, increase” value (SKOV3 cells [3]; SKOV3, highest MMS dose, normalized to untreated control) was roughly 8 × and the “RAD51 ICS DA, dose dependence” value (SKOV3 cells [4]; SKOV3) was “dose dependent increases in aggregation”. For the same compound, the “RAD51 Imaris Spots analysis, dose dependence” value (SKOV3 cells [4]; SKOV3) was “did not show an overall MMS dose dependency”, the “RAD51 ICS DA, increase over control” value (SKOV3 cells [4]; SKOV3, 1 mM MMS) was 3 × and the “RPA1 clustering (Spots analysis and ICS DA), dose dependence” value (SKOV3 cells [5]) was “dose dependent increase in RPA1 clustering”. The “RPA1 Imaris Spots analysis, dose dependence” value (OVCA429 cells [6]; OVCA429) was “more modest increase with increasing MMS dose” and the “RPA1 ICS DA, increase in aggregation” value (OVCA429 cells [6]; OVCA429, 1 mM MMS) was “exceeding 2.5 × of control”.
